Measurements: patent US20110053985A1, “NOVEL PIPERIDINE-4-CARBOXYLIC ACID PHENYL-ALKYL-AMIDE DERIVATIVES AND THEIR USE AS MONOAMINE NEUROTRANSMITTER RE-UPTAKE INHIBITORS” (NEUROSEARCH A/S, priority 2008, published 2011)
Counter-ions that a name gives are not always drawn.

Columns and labels:
[1] = biological target: T1, serotonine (5-HT) reuptake in synaptosomes (Rattus norvegicus, UniProt P31652); assay: Inhibition of 5-HT reuptake in synaptosomes; format: biochemical; conditions: 3H-5-HT, read-out: 5-HT-uptake IC50
T1 construct: serotonine (5-HT) in synaptosomes as described in WO 97/16451; from tissue; host or cells: synaptosomes (brain tissue)
Description: (§1) Compounds of the invention may be tested for their ability to inhibit re-uptake of the monoamines dopamine, noradrenaline and serotonin in synaptosomes e.g. such as described in WO 97/30997 (NeuroSearch A/S) or WO 97/16451 (NeuroSearch NS). Based on the balanced activity observed in these tests the compound of the invention is considered useful for the treatment, prevention or alleviation of a disease or a disorder or a condition of a mammal, including a human, which disease, disorder or condition is responsive to inhibition of monoamine neurotransmitter re-uptake in the central nervous system.
(§2) Compounds were tested for their ability to inhibit the reuptake of the monoamine neurotransmitters dopamine (DA) noradrenaline (NA) and serotonine (5-HT) in synaptosomes as described in WO 97/16451 (NeuroSearch A/S).
(§3) The test values are given as IC50 (the concentration (μM) of the test substance which inhibits the specific binding of ^3H-DA, ^3H-NA, or ^3H-5-HT by 50%).

[2] = biological target: T2, dopamine (DA) reuptake in synaptosomes (Rattus norvegicus, UniProt P23977); assay: Inhibition of DA reuptake in synaptosomes; format: biochemical; conditions: 3H-DA, read-out: DA-uptake IC50
T2 construct: in synaptosomes as described in WO 97/16451; from tissue; host or cells: synaptosomes (brain tissue)
Description: as §1, §2, §3

T1 sequence (P31652 whole entry): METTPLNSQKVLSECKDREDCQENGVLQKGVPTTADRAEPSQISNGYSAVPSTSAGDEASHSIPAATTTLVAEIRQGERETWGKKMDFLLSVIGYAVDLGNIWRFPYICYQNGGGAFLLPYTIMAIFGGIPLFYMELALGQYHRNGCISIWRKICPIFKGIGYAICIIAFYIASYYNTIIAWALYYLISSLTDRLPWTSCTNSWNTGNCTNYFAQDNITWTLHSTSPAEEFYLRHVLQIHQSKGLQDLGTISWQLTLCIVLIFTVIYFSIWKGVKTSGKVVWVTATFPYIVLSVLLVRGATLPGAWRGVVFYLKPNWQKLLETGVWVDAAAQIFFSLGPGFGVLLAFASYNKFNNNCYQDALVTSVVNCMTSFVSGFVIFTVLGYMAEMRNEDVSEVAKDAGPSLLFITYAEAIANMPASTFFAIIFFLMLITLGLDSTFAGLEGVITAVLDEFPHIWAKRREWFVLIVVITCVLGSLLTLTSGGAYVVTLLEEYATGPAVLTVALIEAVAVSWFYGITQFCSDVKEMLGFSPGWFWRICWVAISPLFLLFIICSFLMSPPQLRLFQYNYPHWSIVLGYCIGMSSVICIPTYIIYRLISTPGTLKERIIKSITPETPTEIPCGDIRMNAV
T2 sequence (P23977 whole entry): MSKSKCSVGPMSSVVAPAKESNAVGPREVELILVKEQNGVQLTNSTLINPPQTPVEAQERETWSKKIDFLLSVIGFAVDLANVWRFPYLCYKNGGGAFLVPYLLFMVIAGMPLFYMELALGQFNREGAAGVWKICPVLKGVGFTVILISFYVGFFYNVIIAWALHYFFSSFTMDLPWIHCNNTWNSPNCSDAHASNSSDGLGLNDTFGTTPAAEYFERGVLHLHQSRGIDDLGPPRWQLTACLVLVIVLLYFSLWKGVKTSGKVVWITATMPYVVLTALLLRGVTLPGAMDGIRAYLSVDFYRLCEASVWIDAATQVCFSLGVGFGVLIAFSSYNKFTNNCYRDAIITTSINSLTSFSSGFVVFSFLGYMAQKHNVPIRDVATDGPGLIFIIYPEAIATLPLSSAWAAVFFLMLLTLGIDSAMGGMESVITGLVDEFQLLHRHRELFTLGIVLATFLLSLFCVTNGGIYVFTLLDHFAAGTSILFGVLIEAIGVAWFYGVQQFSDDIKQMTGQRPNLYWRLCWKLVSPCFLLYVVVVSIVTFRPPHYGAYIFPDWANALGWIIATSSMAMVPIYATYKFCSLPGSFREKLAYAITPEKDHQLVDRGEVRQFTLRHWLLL

Compound	IC50 [1]	IC50 [2]	melting point
CCN(C(=O)C1CCNCC1)c1ccc(Cl)c(Br)c1 [Compound C7, Piperidine-4-carboxylic acid (3-bromo-4-chloro-phenyl)-ethyl-amide hydrochloric acid salt]	140 nM	7.8 nM	–
CCN(C(=O)C1CCNCC1)c1ccc(Br)c(Br)c1 [Compound C13, Piperidine-4-carboxylic acid (3,4-dibromo-phenyl)-ethyl-amide hydrochloric acid salt]	120 nM	4 nM	–
CCN(C(=O)C1CCNCC1)c1ccc(Cl)c(Cl)c1.O=C(O)C(F)(F)F [Compound C1, Piperidine-4-carboxylic acid (3,4-dichloro-phenyl)-ethyl-amide trifluoroacetic acid salt]	370 nM	21 nM	159.3 to 160.7 °C
